Laboratory results published in patent US20190134005A1 (BioMarin Pharmaceutical Inc., priority 2016, published 2019).

target: T1, human CGT (Homo sapiens, UniProt Q16880); experiment: Assay 1: CGT Enzymatic Assay (RapidFire/MS/MS, 0.01% Tween 80); type: biochemical; conditions: Table 1, Compounds of Formula (I) and Formula (II); CGT enzymatic assay, C6-NBD-dihydro-galactosylceramide readout; read-out: IC50
T1 sequence (Q16880 21-541): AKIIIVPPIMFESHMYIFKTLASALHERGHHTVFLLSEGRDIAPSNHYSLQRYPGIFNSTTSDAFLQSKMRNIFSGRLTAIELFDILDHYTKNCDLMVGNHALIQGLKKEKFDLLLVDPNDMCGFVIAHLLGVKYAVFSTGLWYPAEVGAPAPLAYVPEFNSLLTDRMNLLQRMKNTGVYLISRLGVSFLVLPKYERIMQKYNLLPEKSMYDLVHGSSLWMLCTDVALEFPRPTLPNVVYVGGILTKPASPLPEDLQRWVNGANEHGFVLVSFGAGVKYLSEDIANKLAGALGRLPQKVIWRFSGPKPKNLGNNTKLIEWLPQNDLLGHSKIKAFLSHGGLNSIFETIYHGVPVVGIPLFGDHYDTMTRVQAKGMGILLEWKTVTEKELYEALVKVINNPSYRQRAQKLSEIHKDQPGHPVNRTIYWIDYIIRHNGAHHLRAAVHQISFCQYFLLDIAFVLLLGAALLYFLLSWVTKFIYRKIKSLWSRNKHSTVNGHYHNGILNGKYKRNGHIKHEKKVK

IC50 | Structure (SMILES)
< 1000 nM | COC[C@@]1(C)N(c2ccc(Cl)cc2)C(=O)N(c2ccc(Cl)cc2)[C@]1(O)c1cccc(OC(F)(F)F)c1 [Compound 296-4, (4S,5R)-1,3-bis(4-chlorophenyl)-4-hydroxy-5-(methoxymethyl)-5-methyl-4-(3-(trifluoromethoxy)phenyl)imidazolidin-2-one]
1000 to 10000 nM | N#Cc1cccc(C2(O)N(c3ccc(Cl)cc3)C(=O)N(c3ccc(Cl)cc3)C23CNC3)c1 (stereo not drawn) [Compound 300, 3-(5,7-bis(4-chlorophenyl)-8-hydroxy-6-oxo-2,5,7-triazaspiro[3.4]octan-8-yl)benzonitrile 2,2,2-trifluoroacetate]
< 1000 nM | Cc1ccc(N2C(=O)N(c3ccc(C#N)cc3)C3(COC3)C2(O)c2cccc(OC(F)(F)F)c2)cc1 (stereo not drawn) [Compound 277, 4-(8-hydroxy-6-oxo-7-(p-tolyl)-8-(3-(trifluoromethoxy)phenyl)-2-oxa-5,7-diazaspiro[3.4]octan-5-yl)benzonitrile]
< 1000 nM | Cc1ccc(N2C(=O)N(c3ccc(C#N)cc3)C(C)(C)C2(O)c2cccc(OC(F)(F)F)c2)cc1 (stereo not drawn) [Example 312, 4-(4-hydroxy-5,5-dimethyl-2-oxo-3-(p-tolyl)-4-(3-(trifluoromethoxy)phenyl)imidazolidin-1-yl)benzonitrile]

Structure (SMILES) | IC50
CC1(C)N(c2ccc(C#N)cc2)C(=O)N(c2ccc(Cl)cc2)C1(O)c1cccc(OC(F)(F)F)c1 (stereo not drawn) [Example 322, 4-(3-(4-chlorophenyl)-4-hydroxy-5,5-dimethyl-2-oxo-4-(3-(trifluoromethoxy)phenyl)imidazolidin-1-yl)benzonitrile] | < 1000 nM

same assay, conditions: Table 1, Compounds of Formula (I) and Formula (II); CGT enzymatic assay; read-out: IC50

IC50 | Structure (SMILES)
1000 to 10000 nM | C[C@@]1(C(F)(F)F)N(c2ccc(Cl)cc2)C(=O)N(c2ccc(Cl)cc2)C1(O)c1cccc(C#N)c1 (single isomer, unassigned) [Example 177-2]
< 1000 nM | O=C1N(c2ccc(Cl)cc2)C2(CC2)C(O)(c2cccc(C(F)(F)F)c2)N1c1ccc(Cl)cc1 (stereo not drawn) [Example 225, 4,6-bis(4-chlorophenyl)-7-hydroxy-7-(3-(trifluoromethyl)phenyl)-4,6-diazaspiro[2.4]heptan-5-one]
< 1000 nM | CC(C)c1c(-c2cccc(C#N)c2)n(-c2ccc(Br)cc2)c(=O)n1-c1ccc(Br)cc1 [Example 46, 3-(1,3-bis(4-bromophenyl)-5-isopropyl-2-oxo-2,3-dihydro-1H-imidazol-4-yl)benzonitrile]
< 1000 nM | C[C@@H]1N(c2ccc(Br)cc2)C(=O)N(c2ccc(Br)cc2)C1(O)c1ccccc1 (stereo partly drawn) [Example 13-1]
10000 to 50000 nM | COc1cccc(C2(O)C(=O)N(c3ccc(Br)cc3)C(=O)N2c2ccc(Br)cc2)c1 (stereo not drawn) [Example 179, 1,3-bis(4-bromophenyl)-5-hydroxy-5-(3-methoxyphenyl)imidazolidine-2,4-dione]
< 1000 nM | CC1(C(F)(F)F)N(c2ccc(Cl)cc2)C(=O)N(c2ccc(Cl)cc2)C1(O)c1cccc(C#N)c1 (stereo not drawn) [Example 177, 3-(1,3-bis(4-chlorophenyl)-4-hydroxy-5-methyl-2-oxo-5-(trifluoromethyl)imidazolidin-4-yl)benzonitrile]
< 1000 nM | N#Cc1cccc(C2(O)C(C3CCC3)N(c3ccc(Cl)cc3)C(=O)N2c2ccc(Cl)cc2)c1 (stereo not drawn) [Example 194, 3-(1,3-bis(4-chlorophenyl)-5-cyclobutyl-4-hydroxy-2-oxoimidazolidin-4-yl)benzonitrile]
50000 to 100000 nM | O=C1N(c2ccc(Br)cc2)CC(O)(c2cc3ccccc3s2)N1c1ccc(Br)cc1 (stereo not drawn) [Example 8, 4-(benzo[b]thiophen-2-yl)-1,3-bis(4-bromophenyl)-4-hydroxyimidazolidin-2-one]
50000 to 100000 nM | O=C1N(c2ccc(Br)cc2)C(=O)C(O)(c2ccc(OC3CCCC3)cc2)N1c1ccc(Br)cc1 (stereo not drawn) [Example 167, 1,3-bis(4-bromophenyl)-5-(4-(cyclopentyloxy)phenyl)-5-hydroxyimidazolidine-2,4-dione]

Continued, compound first:

Structure (SMILES) | IC50
C#Cc1cc(Cl)cc(C2(O)CN(c3ccc(Cl)cc3)C(=O)N2c2ccc(Cl)cc2)c1 (stereo not drawn) [Compound 108, 4-(3-chloro-5-ethynylphenyl)-1,3-bis(4-chlorophenyl)-4-hydroxyimidazolidin-2-one] | 1000 to 10000 nM
COc1ccc(N2C(=O)N(c3ccc(OC)cc3)C(O)(c3cccc(OC(F)(F)F)c3)C2(C)C)cc1 (stereo not drawn) [Compound 241, 4-hydroxy-1,3-bis(4-methoxyphenyl)-5,5-dimethyl-4-(3-(trifluoromethoxy)phenyl)imidazolidin-2-one] | < 1000 nM
N#Cc1cccc(C2(O)N(c3ccc(Cl)cc3)C(=O)N(c3ccc(Cl)cc3)C23CCC3)c1 (stereo not drawn) [Compound 72, 3-(5,7-bis(4-chlorophenyl)-8-hydroxy-6-oxo-5,7-diazaspiro[3.4]octan-8-yl)benzonitrile] | < 1000 nM
C[C@H]1N(c2ccc(Br)cc2)C(=O)N(c2ccc(Br)cc2)C1(O)c1cccc(Cl)c1 (stereo partly drawn) [Compound 73-2, (5R)-1,3-bis(4-bromophenyl)-4-(3-chlorophenyl)-4-hydroxy-5-methylimidazolidin-2-one] | < 1000 nM
CC1(C)N(c2ccc(Cl)cc2)C(=O)N(c2ccc(Cl)cc2)C1(O)c1cccc(OC(F)(F)F)c1 (stereo not drawn) [Compound 133, 1,3-bis(4-chlorophenyl)-4-hydroxy-5,5-dimethyl-4-(3-(trifluoromethoxy)phenyl)imidazolidin-2-one] | < 1000 nM
CC1N(c2ccc(Br)cc2)C(=O)N(c2ccc(Br)cc2)C1(O)c1cccc(OC(F)(F)F)c1 (stereo not drawn) [Compound 66, 1,3-bis(4-bromophenyl)-4-hydroxy-5-methyl-4-(3-(trifluoromethoxy)phenyl)imidazolidin-2-one] | < 1000 nM
Cc1ccc(C2(O)CN(c3ccc(Br)cc3)C(=O)N2c2ccc(Br)cc2)cc1 (stereo not drawn) [Example 23, 1,3-bis(4-bromophenyl)-4-hydroxy-4-(p-tolyl)imidazolidin-2-one] | > 50000 nM
O=C1N(c2ccc(Cl)cc2)C(C2CC2)C(O)(c2cccc(OC(F)F)c2)N1c1ccc(Cl)cc1 (stereo not drawn) [Compound 233, 1,3-bis(4-chlorophenyl)-5-cyclopropyl-4-(3-(difluoromethoxy)phenyl)-4-hydroxyimidazolidin-2-one] | < 1000 nM
O=c1n(-c2ccc(Cl)cc2)c(-c2cccc(OC(F)F)c2)c(C2CC2)n1-c1ccc(Cl)cc1 [Compound 70, 1,3-bis(4-chlorophenyl)-4-cyclopropyl-5-(3-(difluoromethoxy)phenyl)-1,3-dihydro-2H-imidazol-2-one] | < 1000 nM
CCCC1N(c2ccc(Br)cc2)C(=O)N(c2ccc(Br)cc2)C1(O)c1cccc(Cl)c1 (stereo not drawn) [Compound 119, 1,3-bis(4-bromophenyl)-4-(3-chlorophenyl)-4-hydroxy-5-propylimidazolidin-2-one] | < 1000 nM
C#Cc1cccc(C2(O)[C@@H](C)N(c3ccc(Cl)cc3)C(=O)N2c2ccc(Cl)cc2)c1 (stereo partly drawn) [Compound 93-2, (5R)-1,3-bis(4-chlorophenyl)-4-(3-ethynylphenyl)-4-hydroxy-5-methylimidazolidin-2-one] | < 1000 nM
CC1(C)N(c2ccc(Br)cc2)C(=O)N(c2ccc(Br)cc2)C1(O)c1ccccc1 (stereo not drawn) [Compound 120, 1,3-bis(4-bromophenyl)-4-hydroxy-5,5-dimethyl-4-phenylimidazolidin-2-one] | < 1000 nM
CC1(c2cccc(Cl)c2)C(O)N(c2ccc(Cl)cc2)C(=O)N1c1ccc(Cl)cc1 (stereo not drawn) [Compound 149, 4-(3-chlorophenyl)-1,3-bis(4-chlorophenyl)-5-hydroxy-4-methylimidazolidin-2-one] | < 1000 nM
